Test results reported in article PMC12557365 (Journal of Medicinal Chemistry, 2025).
Where two headings read alike, the source gives them in different places.

Assays:
[1] = test system: rgSARS-CoV-2 with 3CL^pro mutations; assay type: cell-based, SARS-CoV-2
SARS-CoV-2 3CL^pro = SARS-CoV-2 3CL^pro (Severe acute respiratory syndrome coronavirus 2, UniProt P0DTD1); test: biochemical; assay type: biochemical
SARS-CoV-2 variants = test: microbe, parasite or virus in culture; assay type: cell-based
[2] = test system: SARS-CoV-2 Omicron strains; test: microbe, parasite or virus in culture; assay type: cell-based; conditions: Severe acute respiratory syndrome coronavirus 2, Epithelial cell, read-out: EC90 against the Omicron variants in hAECs

With `CCC(CC)COC(=O)[C@H](C)N[P@](=O)(OC[C@H]1O[C@@](C#N)(c2ccc3c(N)ncnn23)[C@H](O)[C@@H]1O)Oc1ccccc1` [remdesivir] the EC50 [1] was 2010 ± 80 nM.

For `CC(C)(C)[C@H](NC(=O)C(F)(F)F)C(=O)N1C[C@H]2[C@@H]([C@H]1C(=O)N[C@H](C#N)C[C@@H]1CCNC1=O)C2(C)C` [nirmatrelvir, reference compound], the EC50 [1] was 3150 ± 1010 nM.

`Cc1cncc(-n2c(=O)c(Cc3cc(F)c(F)c(F)c3)c(N3CCCC3)n(CC#N)c2=O)c1` [Compound 5, 2-(3-(5-Methylpyridin-3-yl)-2,4-dioxo-6-(pyrrolidin-1-yl)-5-(3,4,5-trifluorobenzyl)-3,4-dihydropyrimidin-1(2H)-yl)-acetonitrile] was tested, and the “decrease in activity versus compound 4” value (SARS-CoV-2 3CL^pro) was > 10 -fold.

`Cn1cnc(Cn2c(=O)[nH]/c(=N\c3cc4cn(C)nc4cc3Cl)n(Cc3cc(F)c(F)cc3F)c2=O)n1` [ensitrelvir] was tested, and the EC50 (SARS-CoV-2 variants) was 259 ± 41 nM.

Compound `N#CCn1c(N2CC3(C2)CC(F)(F)C3)c(-c2ccc(F)c(Cl)c2)c(=O)n(-c2cncc(Cl)c2)c1=O` [Compound 17, [5-(3-Chloro-4-fluorophenyl)-3-(5-chloropyridin-3-yl)-6-(6,6-difluoro-2-azaspiro[3.3]-heptan-2-yl)-2,4-dioxo-3,4-dihydropyrimidin-1(2H)-yl]-acetonitrile] has an EC50 (SARS-CoV-2 variants; Severe acute respiratory syndrome coronavirus 2, VeroE6/TMPRSS2, read-out: EC50 against various SARS-CoV-2 variants) of 2.27 to 12.5 nM and an EC90 [2] of 2.31 to 2.41 nM.
